From US10435361B2, “Kinase inhibitors” (Topivert Pharma Limited, priority 2013, dated 2019)

Tests used:
PBMCs [1] = assay: Cell mitosis assay in PBMCs; format: cell-based; conditions: Homo sapiens, PBMC, 5 μg/mL
Procedure: Peripheral blood mononucleocytes (PBMCs) from healthy subjects are separated from whole blood (Quintiles, London, UK) using a density gradient (Histopaque®-1077, Sigma-Aldrich, Poole, UK). The PBMCs (3 million cells per sample) are subsequently treated with 2% PHA (phytohaemagglutinin, Sigma-Aldrich, Poole, UK) for 48 hr, followed by a 20 hr exposure to varying concentrations of test compounds. At 2 hr before collection, PBMCs are treated with demecolcine (0.1 μg/mL; Invitrogen, Paisley, UK) to arrest cells in metaphase. To observe mitotic cells, PBMCs are permeabilised and fixed by adding Intraprep (50 μL; Beckman Coulter, France), and stained with anti-phospho-histone 3 (0.26 ng/L; #9701; Cell Signalling, Danvers, Mass.) and propidium iodide (1 mg/mL; Sigma-Aldrich, Poole, UK) as previously described (Muehlbauer P. A. and Schuler M. J., Mutation Research, 2003, 537:117-130). Fluorescence is observed using an ATTUNE flow cytometer (Invitrogen, Paisley, UK), gating for lymphocytes.

PBMCs [2] = assay: LPS-induced TNFα/IL-8 release in PBMC cells; format: cell-based; conditions: Homo sapiens, assay (b), read-out: IC50 Values for Inhibition of Cytokine Release PBMCs IL-8
In short: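 Healthy-donor PBMCs isolated by density gradient were pretreated with compound for 2 h, then stimulated with 1 ng/mL LPS (E. coli 0111:B4) for 24 h at 37° C., 5% CO2. IL-8 and TNFα in supernatants measured by sandwich ELISA.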

SMILES	inhibition at 5 µg/mL (PBMCs [1])	IC50 (PBMCs [2])
COc1cc(Nc2nccc(Oc3ccc(NC(=O)Nc4cc(C(C)(C)C)cc(NS(C)(=O)=O)c4OC)c4ccccc34)n2)cc(OCCOCCOCCN(C)C)c1 [Example 15, N-(5-(tert-Butyl)-3-(3-(4-((2-((3-(2-(2-(2-(dimethylamino)ethoxy)ethoxy)ethoxy)-5-methoxyphenyl)amino)pyrimidin-4-yl)oxy)naphthalen-1-yl)ureido)-2-methoxyphenyl)-methanesulfonamide]	97.5%	0.9 nM
COc1cc(Nc2cc(Oc3ccc(NC(=O)Nc4cc(C(C)(C)C)cc(NS(C)(=O)=O)c4OC)c4ccccc34)ccn2)cc(C(=O)NCCN2CCOC(C)(C)C2)c1 [85(m), 3-[[4-[[4-[[5-tert-Butyl-3-(methanesulfonamido)-2-methoxyphenyl]-carbamoylamino]-1-naphthyl]oxy]-2-pyridyl]amino]-N-[2-(2,2-dimethylmorpholin-4-yl)ethyl]-5-methoxybenzamide]	26.4%	1.8 nM
COc1cc(Nc2nccc(Oc3ccc(NC(=O)Nc4cc(C(C)(C)C)cc(NS(C)(=O)=O)c4OC)c4ccccc34)n2)cc(OCCOCCOCCO)c1 [83(c), N-(5-(tert-butyl)-3-(3-(4-((2-((3-(2-(2-(2-hydroxyethoxy)ethoxy)ethoxy)-5-methoxyphenyl)-amino)pyrimidin-4-yl)oxy)naphthalen-1-yl)ureido)-2-methoxyphenyl)methanesulfonamide]	57.1%	1.8 nM
COc1cc(Nc2cc(Oc3ccc(NC(=O)Nc4cc(C(C)(C)C)cc(NS(C)(=O)=O)c4OC)c4ccccc34)ccn2)cc(C(=O)NCCN2C[C@@H](C)O[C@@H](C)C2)c1 [85(n), 3-[[4-[[4-[[5-tert-Butyl-3-(methanesulfonamido)-2-methoxyphenyl]-carbamoylamino]-1-naphthyl]oxy]-2-pyridyl]amino]-N-[2-[(2R,6S)-2,6-dimethylmorpholin-4-yl]ethyl]-5-methoxybenzamide]	26.6%	1.9 nM
COCCOCCOCCOc1cc(Nc2cc(Oc3ccc(NC(=O)Nc4cc(C(C)(C)C)cc(C(=O)NCCN(C)C)c4OC)c4ccccc34)ccn2)cc(OC)c1 [Example 76, 5-(tert-Butyl)-N-(2-(dimethylamino)ethyl)-2-methoxy-3-(3-(4-((2-((3-methoxy-5-(2-(2-(2-methoxyethoxy)ethoxy)ethoxy)phenyl)amino)pyridin-4-yl)oxy)naphthalen-1-yl)ureido)-benzamide]	91.3%	1.9 nM
COCCOCCOCCS(=O)(=O)c1cc(Nc2cc(Oc3ccc(NC(=O)Nc4cc(C(C)(C)C)cc(NS(C)(=O)=O)c4OC)c4ccccc34)ccn2)cc(OC)c1 [Example 85(y), 1-[5-tert-Butyl-3-(methanesulfonamido)-2-methoxyphenyl]-3-[4-[2-[3-methoxy-5-[2-[2-(2-methoxyethoxy)ethoxy]ethylsulfonyl]anilino]pyridin-4-yl]oxy-1-naphthyl]urea]	20.1%	1.7 nM
COc1cc(Nc2nccc(Oc3ccc(NC(=O)Nc4cc(C(C)(C)C)cc(NS(C)(=O)=O)c4OC)c4ccccc34)n2)cc(OCCOCCOCCN2CCOCC2)c1 [Example 18, N-(5-(tert-Butyl)-2-methoxy-3-(3-(4-((2-((3-methoxy-5-(2-(2-(2-morpholinoethoxy)ethoxy)-ethoxy)phenyl)amino)pyrimidin-4-yl)oxy)naphthalen-1-yl)ureido)phenyl)methanesulfonamide]	92.7%	1 nM
